Laboratory results published in patent US9474790B2, “Stable, protracted GLP-1/glucagon receptor co-agonists for medical use” (Novo Nordisk A/S, priority 2013, dated 2016).
Numbered stars: 1 amine (or outer) side, 2 acyl side, 3 side chain; on linkers, the order of the positions; unused ones are H or OH. Square brackets hold non-standard residues; d marks the D form. Side chains are listed from the residue outwards. Peptide text beside a SMILES is read from it. * marks the point of attachment. C18 diacid = O=C(O)CCCCCCCCCCCCCCCCC(=O)*; γGlu = O=C(O)[C@H](CCC(=O)[*:2])N[*:1]; AEEA = NCCOCCOCC(=O)O; Aib = CC(C)(N)C(=O)O

Columns and labels:
[1] = molecular target: T1, human GLP-1 receptor (Homo sapiens, UniProt P43220); test: GLP-1 receptor binding, 125I-GLP-1 displacement SPA on isolated membranes; conditions: displacement of 125I-GLP-1 from membranes; read-out: IC50 GLP-1R
T1 construct: expressed in transfected cells; host or cells: BHK cells (parent BHKTS13), clone FCW467-12A/KZ10-1, with CRE luciferase
Method: The purpose of this assay was to test the in vitro receptor binding activity of the glucagon derivatives of the invention. The receptor binding is a measure of affinity of a compound for the human GLP-1 receptor.
The receptor binding of each compound to the human GLP-1 receptor was measured in a displacement binding assay. In this type of assay a labelled ligand (in this case 125I-GLP-1) is bound to the receptor. Each derivative was added in a series of concentrations to isolated membranes containing the human GLP-1 receptor and displacement of the labelled ligand was monitored. The receptor binding was reported as the concentration at which half of the labelled ligand was displaced from the receptor, the IC50 value.
In order to test the binding of the derivatives to albumin, the assay may be performed in a very low concentration of serum albumin (max. 0.001% final assay concentration) as well as in the presence of a higher concentration of serum albumin (2.0% final assay concentration). An increase of the IC50 value, in the presence of serum albumin indicates an affinity to serum albumin and represents a method to predict a protracted pharmacokinetic profile of the test substance in animal models.
The following chemicals were used in the assay: DMEM w/o phenol red (Gibco 11880-028), Pen/strep (Invitrogen 15140-122), G418 (Invitrogen 10131-027), 1 M Hepes (Gibco 15630), EDTA (Invitrogen 15575-038), PBS (Invitrogen 14190-094), fetal calf serum (Invitrogen 16140-071), EGTA, MgCl2 (Merck 1.05832.1000), Tween 20 (Amresco 0850C335), SPA particles (wheat germ agglutinin (WGA) SPA beads, Perkin Elmer RPNQ0001), [125I]-GLP-1]-(7-36)NH2 (produced in-house), OptiPlate™-96 (Perkin Elmer).
Buffer 1 consisted of 20 mM Na-HEPES plus 10 mM EDTA and pH was adjusted to 7.4.
Buffer 2 consisted of 20 mM Na-HEPES plus 0.1 mM EDTA and pH was adjusted to 7.4.
Assay buffer consisted of 50 mM HEPES supplemented with 5 mM EGTA, 5 mM MgCl2, 0.005% Tween 20 and pH was adjusted to 7.4.
The cells used in this assay (clone FCW467-12A) were BHK cells with BHKTS13 as a parent cell line. The cells express the human GLP-1 receptor.
The cells were grown at 5% CO2 in DMEM, 10% fetal calf serum, 1% Pen/Strep (Penicillin/Streptomycin) and 1.0 mg/ml of the selection marker G418. To make a membrane preparation the cells were grown to approximately 80% confluence. The cells were washed twice in phosphate-buffered saline and harvested. The cells were pelleted using a brief centrifugation and the cell pellet was kept on ice. The cell pellet was homogenised with ULTRA-THURRAX dispersing instrument for 20-30 sec in a suitable amount of buffer 1 (e.g. 10 ml). The homogenate was centrifuged for 15 min. The pellet was re-suspended (homogenised) in 10 ml buffer 2 and centrifuged. This step was repeated once more. The resulting pellet was re-suspended in buffer 2 and the protein concentration was determined. The membranes were aliquoted and stored at minus 80° C.
1. For the receptor binding assay, 50 μl of the assay buffer was added to each well of an assay plate.
2. Test compounds were serially diluted to give the following concentrations: 8×10EE-7 M, 8×10EE-8 M, 8×10EE-9 M, 8×10EE-10 M, 8×10EE-11 M, 8×10EE-12 M and 8×10EE-13 M. Twenty-five μl were added to appropriate wells in the assay plate.
3. Cell membrane aliquots were thawed and diluted to their working concentration. Fifty μl were added to each well in the assay plate.
4. WGA SPA beads were suspended in assay buffer at 20 mg/ml. The suspension was diluted to 10 mg/ml in assay buffer just prior to addition to the assay plate. Fifty μl were added to each well in the assay plate.
5. The incubation was started by adding 25 μl of 480 pM solution of [125I]-GLP-1]-(7-36)NH2 to each well of the assay plate. A 25 μl aliquot was reserved for measuring total counts/well.
6. The assay plate was incubated for 2 h at 30° C.
7. The assay plate was centrifuged for 10 min.
8. The assay plate was read in a Perkin Elmer TopCount NXT instrument. […]

[2] = Thioflavin T (ThT) fibrillation assay for physical stability; format: physicochemical; conditions: 250 μM in 10 mM HEPES buffer, pH 7.5, 37° C., shaking 960 rpm
Excerpt: The purpose of this assay was to assess the physical stability of the glucagon derivatives of the invention in aqueous solutions.
Low physical stability of a peptide may lead to amyloid fibril formation, which is observed as well-ordered, thread-like macromolecular structures in the sample, which eventually may lead to gel formation. This has traditionally been measured by visual inspection of the sample. However, that kind of measurement is very subjective and depending on the observer. Therefore, the application of a small molecule indicator probe is much more advantageous. Thioflavin T (ThT) is such a probe and has a distinct fluorescence signature when binding to fibrils [Naiki et al; Anal. Biochem. 1989 177 244-249; LeVine; Methods. Enzymol. 1999 309 274-284].
The time course for fibril formation can be described by a sigmoidal curve with the following expression [Nielsen et al; Biochemistry 2001 40 6036-6046]:
Here, as depicted in FIG. 1, F is the ThT fluorescence at the time t. The constant t0 is the time needed to reach 50% of maximum fluorescence. The two important parameters describing fibril formation are the lag-time calculated by t0−2τ and the apparent rate constant kapp 1/τ.
Samples were prepared freshly before each assay. Each sample composition is described in the legends. The pH of the sample was adjusted to the desired value using appropriate amounts of concentrated NaOH and HCl. Thioflavin T was added to the samples from a stock solution in H2O to a final concentration of 1 μM.
Sample aliquots of 200 μl (250 μM of the glucagon derivative/analogue in 10 mM HEPES buffer, pH 7.5) were placed in a 96 well microtiter plate (Packard OptiPlate™-96, white polystyrene). Usually, four or eight replica of each sample (corresponding to one test condition) were placed in one column of wells. The plate was sealed with Scotch Pad (Qiagen).
Incubation at given temperature, shaking and measurement of the ThT fluorescence emission were done in a Fluoroskan Ascent FL fluorescence plate reader (Thermo Labsystems). The temperature was set to 37° C. and the plate was incubated with orbital shaking adjusted to 960 rpm with an amplitude of 1 mm. Fluorescence measurement was done using excitation through a 444 nm filter and measurement of emission through a 485 nm filter.
Each run was initiated by incubating the plate at the assay temperature for 10 min. The plate was measured every 20 minutes for a desired period of time. Between each measurement, the plate was shaken and heated as described.
After completion of the ThT assay the four or eight replica of each sample was pooled and centrifuged at 20000 rpm for 30 minutes at 18° C. The supernatant was filtered through a 0.22 μm filter and an aliquot was transferred to a HPLC vial.
The concentration of peptide in the initial sample and in the filtered supernatant was determined by reverse phase HPLC using an appropriate standard as reference. The percentage fraction the concentration of the filtered sample constituted of the initial sample concentration was reported as the recovery.
The measurement points were saved in Microsoft Excel format for further processing and curve drawing and fitting was performed using GraphPad Prism. The background emission from ThT in the absence of fibrils was negligible. The data points were typically a mean of four or eight samples.
The data set may be fitted to Eq. (1).

T1 sequence (P43220 24-463): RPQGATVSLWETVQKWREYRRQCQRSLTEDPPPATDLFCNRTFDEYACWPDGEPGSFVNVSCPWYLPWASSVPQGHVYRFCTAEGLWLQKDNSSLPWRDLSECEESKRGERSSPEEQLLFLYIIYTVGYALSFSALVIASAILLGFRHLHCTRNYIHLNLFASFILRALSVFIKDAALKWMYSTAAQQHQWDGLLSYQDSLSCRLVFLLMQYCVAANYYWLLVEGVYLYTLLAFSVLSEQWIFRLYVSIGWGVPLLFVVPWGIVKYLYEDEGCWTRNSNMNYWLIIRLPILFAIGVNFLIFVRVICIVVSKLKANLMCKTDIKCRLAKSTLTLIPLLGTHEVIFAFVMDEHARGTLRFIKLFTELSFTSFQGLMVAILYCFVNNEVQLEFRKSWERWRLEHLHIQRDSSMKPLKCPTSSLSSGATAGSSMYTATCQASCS

Row | IC50 [1] | THT assay Lag time (Ex. 76) [2] | Compound
1 | 0.2 nM | 8 h | CC(C)C[C@H](NC(=O)[C@H](CC(C)C)NC(=O)[C@H](Cc1c[nH]c2ccccc12)NC(=O)[C@H](CCC(N)=O)NC(=O)[C@@H](NC(=O)[C@H](Cc1ccccc1)NC(=O)[C@H](CCC(=O)O)NC(=O)[C@H](CCCNC(=N)N)NC(=O)[C@H](C)NC(=O)[C@H](C)NC(=O)[C@H](CCCNC(=N)N)NC(=O)[C@H](CO)NC(=O)[C@H](CC(=O)O)NC(=O)[C@H](CC(C)C)NC(=O)[C@H](Cc1ccc(O)cc1)NC(=O)[C@H](CCCCN)NC(=O)[C@H](CO)NC(=O)[C@H](CC(C)C)NC(=O)[C@H](CC(=O)O)NC(=O)[C@H](CO)NC(=O)[C@@H](NC(=O)[C@H](Cc1ccccc1)NC(=O)[C@@H](NC(=O)CNC(=O)[C@H](CCC(N)=O)NC(=O)C(C)(C)NC(=O)[C@@H](N)Cc1c[nH]cn1)[C@@H](C)O)[C@@H](C)O)C(C)C)C(=O)N[C@@H](CC(N)=O)C(=O)N[C@@H](CCCCNC(=O)CC[C@H](NC(=O)CC[C@H](NC(=O)COCCOCCNC(=O)COCCOCCNC(=O)CC[C@H](NC(=O)CCCCCCCCCCCCCCCCC(=O)O)C(=O)O)C(=O)O)C(=O)O)C(N)=O [Example 9, N^ε29-[(4S)-4-carboxy-4-[[(4S)-4-carboxy-4-[[2-[2-[2-[[2-[2-[2-[[(4S)-4-carboxy-4-(17-carboxyheptadecanoylamino)butanoyl]amino]ethoxy]ethoxy]acetyl]amino]ethoxy]ethoxy]acetyl]amino]butanoyl]amino]butanoyl]-[Aib2,Leu10,Ala18,Arg20,Glu21,Leu27,Lys29]-Glucagon amide] (H-H[Aib]QGTFTSDLSKYLDSRAAREFVQWLLNK([γGlu-γGlu-AEEA-AEEA-γGlu-C18 diacid])-NH2; N-terminus assumed)
2 | 0.2 nM | – | CC(C)C[C@H](NC(=O)[C@H](Cc1ccc(O)cc1)NC(=O)[C@H](CCCCN)NC(=O)[C@H](CO)NC(=O)[C@H](CC(C)C)NC(=O)[C@H](CC(=O)O)NC(=O)[C@H](CO)NC(=O)[C@@H](NC(=O)[C@H](Cc1ccccc1)NC(=O)[C@@H](NC(=O)CNC(=O)[C@H](CCC(N)=O)NC(=O)C(C)(C)NC(=O)[C@@H](N)Cc1c[nH]cn1)[C@@H](C)O)[C@@H](C)O)C(=O)N[C@@H](CC(=O)O)C(=O)N[C@@H](C)C(=O)N[C@@H](CCCNC(=N)N)C(=O)N[C@@H](CCCNC(=N)N)C(=O)N[C@@H](C)C(=O)N[C@@H](CCCNC(=N)N)C(=O)N[C@@H](CC(=O)O)C(=O)N[C@@H](Cc1ccccc1)C(=O)N[C@H](C(=O)N[C@@H](CCC(N)=O)C(=O)N[C@@H](Cc1c[nH]c2ccccc12)C(=O)N[C@@H](CC(C)C)C(=O)N[C@@H](CC(C)C)C(=O)N[C@@H](CCCCNC(=O)COCCOCCNC(=O)COCCOCCNC(=O)CC[C@H](NC(=O)CC[C@H](NC(=O)CC[C@H](NC(=O)CCCCCCCCCCCCCCCCC(=O)O)C(=O)O)C(=O)O)C(=O)O)C(=O)N[C@H](C(N)=O)[C@@H](C)O)C(C)C [Example 58, N^ε28-[2-[2-[2-[[2-[2-[2-[[(4S)-4-carboxy-4-[[(4S)-4-carboxy-4-[[(4S)-4-carboxy-4-(17-carboxyheptadecanoylamino)butanoyl]amino]butanoyl]amino]butanoyl]amino]ethoxy]ethoxy]acetyl]amino]ethoxy]ethoxy]acetyl]-[Aib2,Leu10,Ala16,Arg20,Leu27,Lys28]-Glucagon amide] (H-H[Aib]QGTFTSDLSKYLDARRARDFVQWLLK([AEEA-AEEA-γGlu-γGlu-γGlu-C18 diacid])T-NH2; N-terminus assumed)
3 | 0.2 nM | – | CC(C)C[C@H](NC(=O)[C@H](Cc1ccc(O)cc1)NC(=O)[C@H](CCCCN)NC(=O)[C@H](CO)NC(=O)[C@@H](NC(=O)[C@H](CC(=O)O)NC(=O)[C@H](CO)NC(=O)[C@@H](NC(=O)[C@H](Cc1ccccc1)NC(=O)[C@@H](NC(=O)CNC(=O)[C@H](CCC(N)=O)NC(=O)C(C)(C)NC(=O)[C@@H](N)Cc1c[nH]cn1)[C@@H](C)O)[C@@H](C)O)C(C)C)C(=O)N[C@@H](CC(=O)O)C(=O)N[C@@H](C)C(=O)N[C@@H](CCCNC(=N)N)C(=O)N[C@@H](CCCNC(=N)N)C(=O)N[C@@H](C)C(=O)N[C@@H](CCC(N)=O)C(=O)N[C@@H](CC(=O)O)C(=O)N[C@@H](Cc1ccccc1)C(=O)N[C@H](C(=O)N[C@@H](CCC(N)=O)C(=O)N[C@@H](Cc1c[nH]c2ccccc12)C(=O)N[C@@H](CC(C)C)C(=O)N[C@@H](CC(C)C)C(=O)N[C@@H](CCCCNC(=O)COCCOCCNC(=O)COCCOCCNC(=O)CC[C@H](NC(=O)CC[C@H](NC(=O)CC[C@H](NC(=O)CCCCCCCCCCCCCCCCC(=O)O)C(=O)O)C(=O)O)C(=O)O)C(=O)N[C@H](C(N)=O)[C@@H](C)O)C(C)C [Example 70, N^ε28-[2-[2-[2-[[2-[2-[2-[[(4S)-4-carboxy-4-[[(4S)-4-carboxy-4-[[(4S)-4-carboxy-4-(17-carboxyheptadecanoylamino)butanoyl]amino]butanoyl]amino]butanoyl]amino]ethoxy]ethoxy]acetyl]amino]ethoxy]ethoxy]acetyl]-[Aib2,Val10,Ala16,Leu27,Lys28]-Glucagon amide] (H-H[Aib]QGTFTSDVSKYLDARRAQDFVQWLLK([AEEA-AEEA-γGlu-γGlu-γGlu-C18 diacid])T-NH2)
